Source: patent publication US20230219906A1, “MACROCYCLIC-2-AMINO-3-FLUORO-BUT-3-ENAMIDES AS INHIBITORS OF MCL-1” (Janssen Pharmaceutica NV, priority 2020, published 2023)
Like-named read-outs stand apart in the source and are kept apart here.

What was measured:
[1] = molecular target: Myeloid Cell Leukemia 1(Mcl-1) (Homo sapiens, UniProt Q07820); test: Terbium labeled Mcl-1 HTRF binding assay with Cy5-labeled BIM BH3 peptide; conditions: displacement of Cy5 Bim BH3 peptide; Ki=IC50/(1+[L]/Kd), [L]=8 nM, Kd=10 nM; 60 minutes at room temperature; read-out: Tb-MCL1 Ki
Chain of Myeloid Cell Leukemia 1(Mcl-1) (Q07820 whole entry): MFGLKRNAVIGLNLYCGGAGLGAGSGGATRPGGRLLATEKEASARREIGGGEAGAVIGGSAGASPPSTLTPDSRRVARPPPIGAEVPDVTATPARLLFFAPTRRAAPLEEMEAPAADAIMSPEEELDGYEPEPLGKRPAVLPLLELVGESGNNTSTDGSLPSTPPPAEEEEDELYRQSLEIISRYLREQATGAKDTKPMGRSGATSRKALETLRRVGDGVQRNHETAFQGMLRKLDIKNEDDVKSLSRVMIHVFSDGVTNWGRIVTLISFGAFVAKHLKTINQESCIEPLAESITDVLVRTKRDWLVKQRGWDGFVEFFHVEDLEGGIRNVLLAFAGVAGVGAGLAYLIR
Method: Terbium labeled Myeloid Cell Leukemia 1(Mcl-1) homogeneous time-resolved fluorescence (HTRF) binding assay utilizing the BIM BH3 peptide (H2N—(C/Cy5Mal) WIAQELRRIGDEFN-OH) as the binding partner for Mcl-1.
This assay evaluated inhibition of the BH3 domain: Mcl-1 interaction by measuring the displacement of Cy5-labeled BIM BH3 peptide (H2N—(C/Cy5Mal) WIAQELRRIGDEFN-OH) in the HTRF assay format.
The following assay and stock buffers were prepared for use in the assay: (a) Stock buffer: 10 mM Tris-HCl, pH=7.5+150 mM NaCl, filtered, sterilized, and stored at 4° C.; and (b) 1X assay buffer, where the following ingredients were added fresh to stock buffer: 2 mM dithiothreitol (DTT), 0.0025% Tween-20, 0.1 mg/mL bovine serum albumin (BSA). The 1X Tb-Mcl-1+Cy5 Bim peptide solution was prepared by diluting the protein stock solution using the 1X assay buffer (b) to 25 pM Tb-Mcl-1 and 8 nM Cy5 Bim peptide.
Using the Acoustic ECHO, 100 nL of 100x test compound(s) were dispensed into individual wells of a white 384-well Perkin Elmer Proxiplate, for a final compound concentration of 1× and final DMSO concentration of 1%. Inhibitor control and neutral control (NC, 100 nL of 100% DMSO) were stamped into columns 23 and 24 of assay plate, respectively. Into each well of the plate was then dispensed 10 μL of the 1X Tb-Mcl-1+Cy5 Bim peptide solution. The plate was centrifuged with a cover plate at 1000 rpm for 1 minute, then incubated for 60 minutes at room temperature with plates covered.
The TR-FRET signal was read on an BMG PHERAStar FSX MicroPlate Reader at room temperature using the HTRF optic module (HTRF: excitation: 337 nm, light source: laser, emission A: 665 nm, emission B: 620 nm, integration start: 60 μs, integration time: […]).
The BMG PHERAStar FSX MicroPlate Reader was used to measure fluorescence intensity at two emission wavelengths—665 nm and 620 nm—and report relative fluorescence units (RFU) for both emissions, as well as a ratio of the emissions (665 nm/620 nm)*10,000. The RFU values were normalized to percent inhibition as follows:
% inhibition=(((NC−IC)−(compound−IC))/(NC−IC))*100
where IC (inhibitor control, low signal)= mean signal of 1X Tb-MCl-1+Cy5 Bim peptide+inhibitor control or 100% inhibition of Mcl-1; NC (neutral control, high signal)= mean signal 1X Tb-MCl-1+Cy5 Bim peptide with DMSO only or 0% inhibition An 11-point dose response curve was generated to determine IC50 values (using GenData) based on the following equation:
Y=Bottom+(Top−Bottom)/(1+10∧((log IC50−X)*HillSlope))
where Y=% inhibition in the presence of X inhibitor concentration; Top=100% inhibition derived from the IC (mean signal of Mcl-1+inhibitor control); Bottom=0% inhibition derived from the NC (mean signal of Mcl-1+DMSO); Hillslope=Hill coefficient; and IC50=concentration of compound with 50% inhibition in relation to top/neutral control (NC).
In this assay [L]=8 nM and Kd=10 nM

[2] = test system: MOLP-8 human multiple myeloma cell line; test: Caspase-Glo 3/7 apoptosis induction assay in MOLP-8 cells; assay type: cell-based; conditions: caspase-3/7 activity, 2 hours at 37° C., averaged over all runs on all batches, read-out: MOLP8 AC50
Source text: MCL-1 is a regulator of apoptosis and is highly over-expressed in tumor cells that escape cell death. The assay evaluates the cellular potency of small-molecule compounds targeting regulators of the apoptosis pathway, primarily MCL-1, Bfl-1, Bcl-2, and other proteins of the Bcl-2 family. Protein-protein inhibitors disrupting the interaction of anti-apoptotic regulators with BH3-domain proteins initiate apoptosis.
The Caspase-Glo® 3/7 Assay is a luminescent assay that measures caspase-3 and −7 activities in purified enzyme preparations or cultures of adherent or suspension cells. The assay provides a proluminescent caspase-3/7 substrate, which contains the tetrapeptide sequence DEVD. This substrate is cleaved to release aminoluciferin, a substrate of luciferase used in the production of light. Addition of the single Caspase-Glo® 3/7 Reagent in an “add-mix-measure” format results in cell lysis, followed by caspase cleavage of the substrate and generation of a “glow-type” luminescent signal.
This assay uses the MOLP-8 human multiple myeloma cell line, which is sensitive to MCL-1 inhibition.
Cell cultures were maintained between 0.2 and 2.0×10^6 cells/mL. The cells were harvested by collection in 50 mL conical tubes. The cells were then pelleted at 500 g for 5 mins before removing supernatant and resuspension in fresh pre-warmed culture medium. The cells were counted and diluted as needed.
The assay reagent was prepared by transferring the buffer solution to the substrate vial and mixing. The solution may be stored for up to 1 week at 4° C. with negligible loss of signal.
Compounds were delivered in assay-ready plates (Proxiplate) and stored at −20° C. Assays always include 1 reference compound plate containing reference compounds. The plates were spotted with 40 nL of compounds (0.5% DMSO final in cells; serial dilution; […] highest conc. 1/3 dilution, 10 doses, duplicates). The compounds were used at room temperature and 4 μL of pre-warmed media was added to all wells except column 2 and 23. The negative control was prepared by adding 1% DMSO in media. The positive control was prepared by adding the appropriate positive control compound in final concentration of […] in media. The plate was prepared by adding 4 μL negative control to column 23, 4 μL positive control to column 2 and 4 μL cell suspension to all wells in the plate. The plate with cells was then incubated at 37° C. for 2 hours. The assay signal reagent is the Caspase-Glo solution described above, and 8 μL was added to all wells. The plates were then sealed and measured after 30 minutes.
The activity of a test compound was calculated as percent change in apoptosis induction as follows:
% Effect (AC50)=100−(sample-LC)/(HC-LC)*100
% Control=(sample/HC)*100
% Control min=(sample-LC)/(HC-LC)*100

`C[C@@H]1[C@@H](C)C/C=C(\F)[C@H](C(=O)N(C)C2CCOC2)N2CCC[C@H]2CN2C[C@@]3(CCCc4cc(Cl)ccc43)COc3ccc(cc32)C(=O)NS1(=O)=O` (single isomer, unassigned) [Compound 69] gave a Ki [1] of 0.049 nM and an AC50 ([2]; Homo sapiens, MOLP-8, 2 h) of 118 nM.

Compound `C[C@@H]1[C@@H](C)C/C=C(\F)[C@H](C(=O)N(C)CC2CCCCO2)N2CCC[C@H]2CN2C[C@@]3(CCCc4cc(Cl)ccc43)COc3ccc(cc32)C(=O)NS1(=O)=O` (single isomer, unassigned) [Compound 71] has a Ki [1] of 0.066 nM and an AC50 ([2]; Homo sapiens, MOLP-8, 2 h) of 94.2 nM.

Work on `C[C@@H]1[C@@H](C)C/C=C(\F)[C@H](C(=O)N(C)CC2CCCCO2)N2CCC[C@H]2CN2C[C@@]3(CCCc4cc(Cl)ccc43)COc3ccc(cc32)C(=O)NS1(=O)=O` (single isomer, unassigned) [Compound 72] yielded a Ki [1] of 0.061 nM and an AC50 [2] of 75.2 nM.

`C[C@@H]1[C@@H](C)C/C=C(\F)[C@H](C(=O)N(C)CCN2CCOCC2)N2CCC[C@H]2CN2C[C@@]3(CCCc4cc(Cl)ccc43)COc3ccc(cc32)C(=O)NS1(=O)=O` [Compound 1] was tested, and the Ki [1] was 0.027 nM and the AC50 ([2]; Homo sapiens, MOLP-8, 2 h) was 80.1 nM.

Compound `C[C@@H]1[C@@H](C)C/C=C(\F)[C@H](C(=O)N(C)C)N2CCC[C@H]2CN2C[C@@]3(CCCc4cc(Cl)ccc43)COc3ccc(cc32)C(=O)NS1(=O)=O` [Compound 3] has a Ki [1] of 0.129 nM and an AC50 ([2]; Homo sapiens, MOLP-8, 2 h) of 99.2 nM.

In the case of `C[C@@H]1CN(C(=O)[C@H]2/C(F)=C/C[C@H](C)[C@@H](C)S(=O)(=O)NC(=O)c3ccc4c(c3)N(C[C@@H]3CCCN32)C[C@@]2(CCCc3cc(Cl)ccc32)CO4)CCO1` [Compound 4], the Ki [1] is reported as 0.084 nM and the AC50 ([2]; Homo sapiens, MOLP-8, 2 h) is reported as 71.3 nM.

Work on `C[C@@H]1[C@@H](C)C/C=C(\F)[C@H](C(=O)N(C)CCCN2CCOCC2)N2CCC[C@H]2CN2C[C@@]3(CCCc4cc(Cl)ccc43)COc3ccc(cc32)C(=O)NS1(=O)=O` [Compound 5] yielded a Ki [1] of 0.026 nM and an AC50 ([2]; Homo sapiens, MOLP-8, 2 h) of 111 nM.

For `C[C@@H]1[C@@H](C)C/C=C(\F)[C@H](C(=O)N2CCOCC2)N2CC[C@H]2CN2C[C@@]3(CCCc4cc(Cl)ccc43)COc3ccc(cc32)C(=O)NS1(=O)=O` [Compound 7], the Ki [1] was 0.223 nM and the AC50 ([2]; Homo sapiens, MOLP-8, 2 h) was 346 nM.

Work on `C[C@@H]1[C@@H](C)C/C=C(\F)[C@H](C(=O)N2CCOCC2)N2CCC[C@H]2CN2C[C@@]3(CCCc4cc(Cl)ccc43)COc3ccc(cc32)C(=O)NS1(=O)=O` [Compound 8] yielded a Ki [1] of 0.074 nM and an AC50 ([2]; Homo sapiens, MOLP-8, 2 h) of 141 nM.

Work on `C[C@@H]1[C@@H](C)C/C=C(\F)[C@H](C(=O)N2C[C@H]3C[C@@H]2CO3)N2CCC[C@H]2CN2C[C@@]3(CCCc4cc(Cl)ccc43)COc3ccc(cc32)C(=O)NS1(=O)=O` [Compound 9] yielded a Ki [1] of 0.13 nM and an AC50 ([2]; Homo sapiens, MOLP-8, 2 h) of 180 nM.

For `C[C@@H]1[C@@H](C)C/C=C(\F)[C@@H](C(=O)N2C[C@H]3C[C@@H]2CO3)N2CCC[C@H]2CN2C[C@@]3(CCCc4cc(Cl)ccc43)COc3ccc(cc32)C(=O)NS1(=O)=O` [Compound 10], the Ki [1] was 0.227 nM and the AC50 ([2]; Homo sapiens, MOLP-8, 2 h) was 285 nM.

Work on `C[C@@H]1[C@@H](C)C/C=C(\F)[C@H](C(=O)N2CCOC[C@@H]2C)N2CCC[C@H]2CN2C[C@@]3(CCCc4cc(Cl)ccc43)COc3ccc(cc32)C(=O)NS1(=O)=O` [Compound 12] yielded a Ki [1] of 0.069 nM and an AC50 ([2]; Homo sapiens, MOLP-8, 2 h) of 196 nM.

`C[C@@H]1[C@@H](C)C/C=C(\F)[C@H](C(=O)N2CCN(C)CC2)N2CCC[C@H]2CN2C[C@@]3(CCCc4cc(Cl)ccc43)COc3ccc(cc32)C(=O)NS1(=O)=O` [Compound 13] was tested, and the Ki [1] was 0.059 nM and the AC50 ([2]; Homo sapiens, MOLP-8, 2 h) was 297 nM.

In the case of `C[C@@H]1[C@@H](C)C/C=C(\F)[C@H](C(=O)N2CC3(CSC3)C2)N2CCC[C@H]2CN2C[C@@]3(CCCc4cc(Cl)ccc43)COc3ccc(cc32)C(=O)NS1(=O)=O` [Compound 15], the Ki [1] is reported as 0.162 nM and the AC50 ([2]; Homo sapiens, MOLP-8, 2 h) is reported as 435 nM.

In the case of `COCCN(CCOC)C(=O)[C@H]1/C(F)=C/C[C@H](C)[C@@H](C)S(=O)(=O)NC(=O)c2ccc3c(c2F)N(C[C@@H]2CCCN21)C[C@@]1(CCCc2cc(Cl)ccc21)CO3` [Compound 17], the Ki [1] is reported as 0.032 nM and the AC50 ([2]; Homo sapiens, MOLP-8, 2 h) is reported as 234 nM.

`COCCN(CCOC)C(=O)[C@H]1/C(F)=C/C[C@H](C)[C@@H](C)S(=O)(=O)NC(=O)c2cc3c(cc2F)OC[C@]2(CCCc4cc(Cl)ccc42)CN3C[C@@H]2CCCN21` [Compound 18] was tested, and the Ki [1] was 0.05 nM and the AC50 ([2]; Homo sapiens, MOLP-8, 2 h) was 213 nM.

`COCCOCCN(C)C(=O)[C@H]1/C(F)=C/C[C@H](C)[C@@H](C)S(=O)(=O)NC(=O)c2ccc3c(c2)N(C[C@@H]2CCCN21)C[C@@]1(CCCc2cc(Cl)ccc21)CO3` [Compound 19] showed a Ki [1] of 0.045 nM and an AC50 ([2]; Homo sapiens, MOLP-8, 2 h) of 79.3 nM.

`COCCN(C)C(=O)[C@H]1/C(F)=C/C[C@H](C)[C@@H](C)S(=O)(=O)NC(=O)c2ccc3c(c2)N(C[C@@H]2CCCN21)C[C@@]1(CCCc2cc(Cl)ccc21)CO3` [Compound 21] gave a Ki [1] of 0.075 nM and an AC50 ([2]; Homo sapiens, MOLP-8, 2 h) of 78 nM.

`C[C@@H]1[C@@H](C)C/C=C(\F)[C@H](C(=O)N(C)CC2CCOCC2)N2CCC[C@H]2CN2C[C@@]3(CCCc4cc(Cl)ccc43)COc3ccc(cc32)C(=O)NS1(=O)=O` [Compound 22] showed a Ki [1] of 0.047 nM and an AC50 ([2]; Homo sapiens, MOLP-8, 2 h) of 56.7 nM.

`C[C@@H]1CN(C(=O)[C@H]2/C(F)=C/C[C@H](C)[C@@H](C)S(=O)(=O)NC(=O)c3ccc4c(c3)N(C[C@@H]3CCCN32)C[C@@]2(CCCc3cc(Cl)ccc32)CO4)CCN1C` [Compound 23] was tested, and the Ki [1] was 0.054 nM and the AC50 ([2]; Homo sapiens, MOLP-8, 2 h) was 101 nM.

Work on `C[C@@H]1[C@@H](C)C/C=C(\F)[C@H](C(=O)N2CCN(C)[C@@H](C)C2)N2CCC[C@H]2CN2C[C@@]3(CCCc4cc(Cl)ccc43)COc3ccc(cc32)C(=O)NS1(=O)=O` [Compound 24] yielded a Ki [1] of 0.068 nM and an AC50 ([2]; Homo sapiens, MOLP-8, 2 h) of 151 nM.

`COC1CN(C(=O)[C@H]2/C(F)=C/C[C@H](C)[C@@H](C)S(=O)(=O)NC(=O)c3ccc4c(c3)N(C[C@@H]3CCCN32)C[C@@]2(CCCc3cc(Cl)ccc32)CO4)C1` [Compound 25] showed a Ki [1] of 0.072 nM and an AC50 ([2]; Homo sapiens, MOLP-8, 2 h) of 154 nM.
